We go through 10 molecules from patent US7491793B2 (priority 2003, dated 2009).

Entries after “also recorded” stand apart in the source; their conditions may differ.

Assay [1] relates to SARS coronavirus strain Urbani. The format is cell-based, SARS CoV strain Urbani or HK.
A further assay deals with HIV-1 virion:cell fusion. Conditions: read-out: concentration giving 50% inhibition of HIV-1 virion:cell fusion; cited from earlier work.
The test system of the next assay is HIV-1. Conditions: 100 mg/day, clinical trial, infected individuals; cited from earlier work.
Assay [2] has as its system mouse hepatitis virus strain A59. The format is cell-based, Mouse hepatitis virus (MHV) strain A59.
The next assay concerns Lassa fever. Conditions: only if administered early (up to six days) in the course of illness; cited from earlier work.

For MYKTPTLKYFGGFNFSQIL [SEQ ID NO:28], the “inhibition of plaque formation by SARS CoV” value (“inhibition … by SARS CoV” for short) in assay [1] is given as “some inhibition”.

For the molecule enfuvirtide, the IC50 in the assay with HIV-1 virion:cell fusion is 1.7 nM. Besides, the “reduction in plasma HIV-1 load” value in the assay on HIV-1 was “approximately 100 fold”.

Turning to “AACEVAKNLNESLIDLQELGKYEQYIKW [SEQ ID NO:29]”, the “inhibition … by SARS CoV” value in assay [1] is recorded as “some inhibition”.

On to “GYFVQDDGEWKFTGSSYYY [SEQ ID NO:23, synthetic peptide from the MHV FIR]”, for which, in assay [2], the “inhibition of plaque formation by MHV” value is recorded as “can inhibit plaque formation by MHV”.

For GVFVFNGTSWFITQRNFFS [SEQ ID NO:25], the “inhibition … by SARS CoV” value in assay [1] is given as “inhibited plaque formation”.

Regarding `NC(=O)c1ncn([C@@H]2O[C@H](CO)[C@@H](O)[C@H]2O)n1` [ribavirin], the “efficacy in the treatment of Lassa fever” value in the assay on Lassa fever is reported as “effective”.

Take GYHLMSFPQAAPHGVVFLHVTY [SEQ ID NO:24]: in assay [1], the “inhibition … by SARS CoV” value was “inhibited plaque formation”.

For the molecule “QDAIKKLNESYINLKEVGTYEMYVKW [SEQ ID NO:27, peptide from the carboxyl terminal helix of MHV S]”, the “inhibition of plaque formation by MHV” value in assay [2] is on record as “some inhibition”.

On to MFPPWSAAAGVPFSLSVQY [SEQ ID NO:26], for which, in assay [2], the “inhibition of plaque formation by MHV” value is “some inhibition”.

GNHILSLVQNAPYGLYFIHFSW [SEQ IDS NO:22]: in assay [2], the “inhibition of plaque formation by MHV” value is “can inhibit plaque formation by MHV; also recorded: more efficient”.
